Test results as given in paper doi:10.1101/2023.12.22.573011v1 (biorxiv, 2023).

Biological target: full-length TDP-43 (TDP-43) (Homo sapiens, UniProt Q13148)
Test: isothermal titration calorimetry
Assay type: binding

Chain of full-length TDP-43 (TDP-43) (Q13148 whole entry): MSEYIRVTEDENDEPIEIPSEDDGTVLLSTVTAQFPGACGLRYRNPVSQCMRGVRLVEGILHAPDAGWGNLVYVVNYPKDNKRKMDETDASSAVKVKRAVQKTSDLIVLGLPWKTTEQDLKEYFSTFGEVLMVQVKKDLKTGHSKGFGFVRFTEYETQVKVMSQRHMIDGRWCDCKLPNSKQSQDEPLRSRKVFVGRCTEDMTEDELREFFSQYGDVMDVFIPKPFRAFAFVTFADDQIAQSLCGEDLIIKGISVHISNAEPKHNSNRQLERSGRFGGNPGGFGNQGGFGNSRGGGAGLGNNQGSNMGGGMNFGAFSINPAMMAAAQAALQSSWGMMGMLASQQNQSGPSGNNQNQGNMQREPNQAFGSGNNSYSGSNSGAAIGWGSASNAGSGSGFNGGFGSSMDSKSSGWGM

SMILES: O=C(O[C@@H]1Cc2c(O)cc(O)cc2O[C@@H]1c1cc(O)c(O)c(O)c1)c1cc(O)c(O)c(O)c1 [epigallocatechin gallate]
- Kd: 7.8 µM
